Assay [1] concerns the target T1, NTS1R (Homo sapiens, UniProt P30989). The assay can be described thus: Fluorescence anisotropy (FA) association and dissociation kinetics at hNTS1R-displaying BBVs. Also on record: NlucC (C-terminal fragment of nanoluciferase, 11 amino acids) (C); made in house; host or cells: Sf9 insect cells, baculovirus (pIMACE-CMVintP10-hNTS1R-Nluc, DH10MultiBac); budded baculovirus particles. The assay is classed as binding. Conditions: NTS1R-BBV, 27 °C; for kon: from model fit, read-out: kon [min^–1 nM^–1] (converted); for koff: read-out: koff [min^–1] (converted). The method, then:
FA-based NTS1R binding studies with 13 and 18 were performed at hNTS1R displaying budded baculovirus particles (termed BBVs below), which were obtained from Sf9 insect cells following the procedure reported for the preparation of neuropeptide Y Y1R displaying BBVs.[61] The obtained viruses were collected by centrifugation at 1600g for 10 min, and the virus titer was determined with an image-based cell-size estimation assay as described elsewhere.[62] The viruses were amplified using a multiplicity of infection (MOI) between 0.01 and 0.1 until a high-titer baculovirus stock (virus concentration of at least 1.0 × 10^8 infectious viral particles/mL) was acquired. To produce BBV preparations with a high receptor density, Sf9 cells with a density of 1.9 × 10^6 cells/mL were infected with an MOI of 3 and the BBVs were collected by centrifugation 63 h after the infection, when the cell viability was <30%. The BBVs were concentrated 40-fold by centrifugation at 48,000g at 4 °C for 40 min, washed with ice-cold DPBS (without supplements), resuspended, and homogenized using a 0.3 mm diameter needle (Sterican, B. Braun, Melsungen, Germany). Aliquots of the BBV preparations were stored at −90 °C until use.
FA measurements were performed with a Synergy NEO multimode plate reader (BioTek, Winooski, VT) and black, half area, flat bottom polystyrene nonbinding surface (NBS) 96-well plates (product no. 3993; Corning, Corning, NY). Polarizing excitation (530 ± 15 nm) and dual emission (590 ± 17.5 nm) filters with a dichroic mirror were used, allowing the simultaneous detection of parallelly and perpendicularly polarized fluorescence emission after polarizing beam splitter. All measurements were performed at 27 °C. For all experiments, DPBS2 was used as binding buffer. […]
25 μL of a 4-fold concentrated (compared to the final concentration) solution of 13 or 18 (final concentrations were 0.3 and 1 nM for both ligands) and 25 μL of DPBS2 were premixed in the 96-well plate followed by the addition of 50 μL of BBV suspension (used in six different concentrations; each was combined with the two ligand concentrations) to start the association. […] This enabled shorter time intervals between the read cycles (the measuring time for one cycle, comprising 4 wells, was 6 s; 100 read cycles were carried out). […] Immediately after the addition of SR142948, FA signals were measured for 10 min (within this time period, the dissociation was complete and a plateau was reached, respectively). Equilibrium binding was analyzed using the FA signals at 10 min. Fluorescence intensities were processed as previously reported[61] using the in-house developed software Aparecium 2.0.20 (http://www.gpcr.ut.ee/software.html).[63] […]

Assay [2] has as its target T1, NTS1R. Description: High-content imaging (HCI) saturation binding, adherent CHO-hNTS1R cells. Particulars: 23 °C. The method, then:
CHO-hNTS1R or HT-29 cells were seeded one day prior to the experiment into the inner 60 wells of a black clear-bottom 96-well plate (Greiner 655090, Greiner Bio-One) at a concentration of 25,000 cells/well and 35,000 cells/well, respectively. On the day of the assay, the medium was removed by suction and the cells were washed with DPBS1 (50 μL). After this step, DPBS1 (180 or 200 μL) containing the nuclear dye Hoechst H33342 (2 μg/mL) was added. This solution also contained the fluorescent ligand (kinetic studies, competition binding experiments), or the fluorescent ligand was added separately (saturation binding experiments). […] Shortly before subjecting the plate to the plate reader for image acquisition, the liquid was removed by suction and DPBS1 (100 μL) was added. Images were acquired using an IX Micro plate reader (Molecular Devices, Sunnyvale, CA) using a 20× Plan Fluor ELWD objective, a xenon lamp light source and DAPI and TRITC excitation/emission filter cubes for imaging nuclear and fluorescent ligand staining, respectively. […] Two sites/well were measured throughout. Images were analyzed by granularity analysis (2–3 μm diameter granules; MetaXpress 5.3, Molecular Devices, San Diego, CA) and the integrated intensity (pixel intensity × granule area) per cell was used as the raw measurement of fluorescent ligand binding. […]

The term kon denotes the rate constant with which the complex forms. What is called koff is the first-order rate constant of dissociation. In general, Kd refers to the equilibrium constant for the complex coming apart.

T1 sequence (P30989 whole entry, the tested form may be a part): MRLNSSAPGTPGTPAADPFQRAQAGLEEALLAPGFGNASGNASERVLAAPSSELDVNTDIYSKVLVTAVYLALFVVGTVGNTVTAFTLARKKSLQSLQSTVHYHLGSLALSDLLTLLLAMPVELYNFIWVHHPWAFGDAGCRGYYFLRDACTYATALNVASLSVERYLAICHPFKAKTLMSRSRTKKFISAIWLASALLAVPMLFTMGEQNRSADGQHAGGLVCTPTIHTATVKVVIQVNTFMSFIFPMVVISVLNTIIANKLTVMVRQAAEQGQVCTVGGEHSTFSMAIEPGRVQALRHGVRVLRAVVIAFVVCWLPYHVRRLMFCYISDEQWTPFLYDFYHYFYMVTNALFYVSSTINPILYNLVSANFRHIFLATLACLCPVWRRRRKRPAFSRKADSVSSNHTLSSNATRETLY

Turning to `CCC(=O)NCCCCNC(=O)NC(=N)NCCC[C@H](NC(=O)[C@@H]1CCCN1C(=O)[C@@H](NC(=O)CCc1cn(CCCNC(=O)CCC#Cc2ccc3c(c2)C(C)(C)C2=C4C=C5C6=[N+](CCC5OC4CCN23)c2ccc(S(=O)(=O)[O-])cc2C6(C)C)nn1)C1CCNCC1)C(=O)N[C@@H](CCCNC(=N)N)C(=O)N1CCC[C@H]1C(=O)N[C@H](C(=O)N[C@H](C(=O)N[C@@H](CC(C)C)C(=O)O)[C@@H](C)CC)C(C)(C)c1ccc(O)cc1` (stereo partly drawn) [Compound 18, N^α-(3-(N-(1-(8-Sulfonato-5,5,27,27-tetramethyl-16-oxa-20-aza-12-azoniaheptacyclo[15.11.0.03,15.04,12.06,11.020,28.021,26]octacosa-1(28),2,4(12),6(11),7,9,21(26),22,24-nonaen-24-yl)-5-oxopentyn-5-yl)-1-aminoprop-3-yl-1H-1,2,3-triazol-4-yl)propanoyl)-2-(piperidin-4-yl)-Gly-Pro-N^ω-[(4-(N-propanoyl)aminobutyl)aminocarbonyl]Arg-Arg-Pro-β,β-dimethyl-L-Tyr-Ile-Leu Tris(hydrotrifluoroacetate)], in assay [1], the kon was 2.33e+07 M⁻¹ s⁻¹ and the dissociation rate constant (koff) is 0.00933 s⁻¹. Binding in assay [2] was characterised by a dissociation constant (Kd) of 1.3 ± 0.3 nM.
For `CCC(=O)NCCCCNC(=O)N=C(N)NCCC[C@H](NC(=O)[C@@H]1CCCN1C(=O)[C@@H](NC(=O)CCc1cn(CCCNC(=O)c2ccc(-c3c4ccc(=[N+](C)C)cc-4oc4cc(N(C)C)ccc34)c(C(=O)[O-])c2)nn1)C1CCNCC1)C(=O)N[C@@H](CCCNC(=N)N)C(=O)N1CCC[C@H]1C(=O)N[C@@H](Cc1ccc(O)cc1)C(=O)N[C@H](C(=O)N[C@@H](CC(C)C)C(=O)O)[C@@H](C)CC` [Compound 13, N^α-(3-(1-N-((1-Carboxylato-2-(6-(dimethylamino)-3-(dimethyliminio)-3H-xanthen-9-yl)phen-5-yl)1-oxomethyl)aminoprop-3-yl-1H-1,2,3-triazol-4-yl)propanoyl)-2-(piperidin-4-yl)-Gly-Pro-N^ω-[(4-(N-propanoyl)aminobutyl)aminocarbonyl]Arg-Arg-Pro-Tyr-Ile-Leu Tris(hydrotrifluoroacetate)], in assay [1], the association rate constant (kon) is 1.67e+07 M⁻¹ s⁻¹ and the koff was 0.0102 s⁻¹. Also, in assay [2], the dissociation constant (Kd) worked out at 1.1 ± 0.2 nM.

For the origin of these results see PMC11440508, “Dually Labeled Neurotensin NTS1R Ligands for Probing Radiochemical and Fluorescence-Based Binding Assays” (Journal of Medicinal Chemistry, 2024).
